As usually defined, the EC50 is the concentration at which the effect is half-maximal.

This test deals with Genome polyprotein (Dengue virus type 2 (strain Thailand/16681/1984), UniProt P29990). Briefly: Inhibition of DENV2 NS2B-NS3 serine protease expressed in human Huh7 cells after 3 days by luciferase reporter gene assay. (In general: Reporter assays use an easily measured gene product as a stand-in for the process of interest.)

Consider `CC(=O)O[C@H]1CC(C)(C)C(=C=C/C(C)=C/C=C/C=C/C=C(C)/C=C2C=C(/C=C/[C@@]34O[C@]3(C)C[C@@H](O)CC4(C)C)C(=O)O/2)[C@](C)(O)C1`, for which the EC50 was found to be 4.5 µM.

For the origin of these results see BindingDB's records for doi:10.1016/j.ejmech.2019.05.010 (Queensland University of Technology, 2019).
